Experimental findings from article PMC6286870 (European journal of pharmaceutics and biopharmaceutics : …, 2018) are described below.

In general, inhibition refers to the percentage by which the read-out fell short of the control. One may read the IC50 as the point on the concentration scale where inhibition reaches its midpoint.

The target of assay [1] is T1, CXCR4 (Homo sapiens, UniProt P61073). The experiment in a line: cell-based. Conditions: TZM-bl, read-out: Inhibition of cell-associated 4DV3-Biot.
Another assay has as its system HIV-1 IIIB. The experiment in a line: HIV-1 entry inhibition assay in TZM-bl reporter cells, X4 strain. Type of assay: cell-based.
The target in assay [2] is T1, CXCR4. As to the kind of experiment: Inhibition of CXCR4 mAb-binding to TZM-bl cells. Conditions: serial dilutions in 1 μg/ml CXCR4 mAb, fixed TZM-bl cells, 40 min on ice.

“Also recorded” adds a separate entry of the source.

T1 sequence (P61073 whole entry): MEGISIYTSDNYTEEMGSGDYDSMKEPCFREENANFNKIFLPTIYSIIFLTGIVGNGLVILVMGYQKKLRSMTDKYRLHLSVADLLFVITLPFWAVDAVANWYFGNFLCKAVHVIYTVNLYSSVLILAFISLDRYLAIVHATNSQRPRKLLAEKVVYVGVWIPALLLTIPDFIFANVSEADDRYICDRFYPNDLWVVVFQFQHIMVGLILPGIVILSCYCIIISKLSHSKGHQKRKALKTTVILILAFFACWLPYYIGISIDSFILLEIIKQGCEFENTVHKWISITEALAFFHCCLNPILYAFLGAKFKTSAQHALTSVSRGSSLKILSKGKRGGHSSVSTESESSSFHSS

Consider `c1cc(CN2CCCNCCNCCCNCC2)ccc1CN1CCCNCCNCCCNCC1` [AMD3100, bicyclam JM-2987], for which, at CXCR4 [1], the inhibition at 20 µM stood at 31% and the inhibition at 200 µM is 47%. The IC50 in the assay with HIV-1 IIIB (Human immunodeficiency virus 1, IIIB, TZM-bl, read-out: IC50 of HIV-1 entry inhibition, X4 strain HIV-1 IIIB) worked out at 0.415 nM. The “Potency of HIV-1 IIIB entry inhibition relative to 4DV3-FITC” value with HIV-1 IIIB (more potent than 4DV3-FITC, ratio of IC50, TZM-bl cells) was 1000 fold. The “Inhibition of CXCR4 mAb clone 44708 binding to TZM-bl cells, in words” value at CXCR4 [2] is “poor ability to inhibit mAb binding; also recorded: ineffective at the tested concentrations”.
